Laboratory results taken from patent US11331288B2, “Conditioning irradiated tissue for increasing vascularity” (THE BOARD OF TRUSTEES OF THE LELAND STANFORD JUNIOR …, priority 2017, dated 2022).

Experiments:
irradiated scalp = assay: Laser Doppler analysis of perfusion of irradiated scalp, DFO injected beneath the dermis (Example 1); format: in vivo, mice
Description: (§1) Adult 60-day-old male Crl:NU-Fox1^NU immunocompromised mice were used for experiments in this study. Twelve mice were treated with a total of 30 Gy external beam radiation, delivered as six fractionated doses of 5 Gy each over 12 days, followed by 5 weeks of recovery. An additional six non-irradiated mice were used as healthy controls for laser Doppler analysis (LDA) and skin analysis. Irradiated mice were divided into two treatment groups: a DFO experimental group and saline control group. Following recovery, mice underwent injection of either DFO (1 mg in 100 μl saline) or 100 μl of saline alone beneath the dermis every other day for a total of seven treatments.
(§2) After irradiation, fat grafting was performed on the irradiated mice. After informed consent was obtained, lipoaspirate was obtained from three healthy female donors, with no other medical co-morbidities under an approved IRB protocol #2188. Lipoaspirate was allowed to settle for 15 minutes for layers to separate by gravity sedimentation, and then oil and blood layers were removed by vacuum aspiration. The remaining fat layer was centrifuged at 1300 rcf for 3 minutes at 4° C. Any remaining oil and blood was again removed and the remaining fat was transferred into 1 cc syringes for injection through a 14-gauge needle. Fat grafting was performed beneath the scalp by creating a subcutaneous tunnel with the needle and then injecting 200 μl of lipoaspirate in retrograde fashion while pulling the needle out.
Laser Doppler Analysis (“LDA”) was performed to measure perfusion at the irradiated site using a Perimed PIM 3 laser Doppler perfusion imager (Datavagen, Sweden). The signal generated by the LDA, laser Doppler perfusion index (LDPI), was used for comparative purposes. LDPI is a product of the blood cell velocity and concentration and is represented by a color spectrum, with black/dark blue representing low perfusion and red representing high perfusion. […]
Five images were taken of each mouse, and the average LDPI of the five images was recorded. […]

[1] = system: inguinal fat pads transplanted to parascapular subcutaneous pockets; conditions: DFO injected fat grafts; cited from earlier work
irradiated scalp skin = assay: Dermal thickness of irradiated skin, H&E stained sections; format: in vivo, mice; conditions: after DFO treatment, before fat grafting; saline 256.71±16.76; not significantly less
Description: Adult 60-day-old male Crl:NU-Fox1^NU immunocompromised mice were used for experiments in this study. Twelve mice were treated with a total of 30 Gy external beam radiation, delivered as six fractionated doses of 5 Gy each over 12 days, followed by 5 weeks of recovery. An additional six non-irradiated mice were used as healthy controls for laser Doppler analysis (LDA) and skin analysis. Irradiated mice were divided into two treatment groups: a DFO experimental group and saline control group. Following recovery, mice underwent injection of either DFO (1 mg in 100 μl saline) or 100 μl of saline alone beneath the dermis every other day for a total of seven treatments. […] For skin analysis, scalp skin biopsy was harvested from both treatment groups following completion of radiation and then 8 weeks following fat grafting. […] Vascularity was determined with CD31 immunoflourescent staining (1:100 Ab28364; Abcam; Cambridge, Mass. and 1:200 AF547; Thermo Fisher Scientific; Waltham, Mass.) and DAPI counterstaining to visualize cell nuclei. Fluorescent images were obtained using an X-Cite 120 Fluorescence Illumination System (Lumen Dynamics Group, Inc.; Ontario, Canada) at the 20× objective. Quantification of CD31 staining was performed using ImageJ (National Institutes of Health; Bethesda, Md.), with pixel-positive area per high power field measured to determine vascular density (11). […]

[2] = system: fat grafts in irradiated scalp; assay: Fat graft volume retention by micro-CT in DFO preconditioned irradiated scalp (Example 1); format: in vivo, mice
Description: as §1, §2
Mice were also imaged using a MicroCAT-II in vivo X-Ray micro-CT scanner (Imtek, Inc.; Knoxville, Tenn.) two days after fat graft injection for baseline volume measurements. Fat graft volume retention was then analyzed every two weeks over a total of 8 weeks using microcomputed tomography, and images were reconstructed as three-dimensional surfaces through cubic-spline interpolation. All reconstructions were performed by a single investigator to avoid inter-observer variability.

With `CC(=O)N(O)CCCCCNC(=O)CCC(=O)N(O)CCCCCNC(=O)CCC(=O)N(O)CCCCCN` [DFO, Deferoxamine] the “laser Doppler perfusion index at the irradiated scalp” value (irradiated scalp; after four treatments of 1 mg DFO every other day beneath the dermis, 176.70±2.59 after irradiation, 265.23±7.01 pre-radiation baseline, mean±SE) was 205.08±2.30 LDPI, the “laser Doppler perfusion index following fat grafting” value (irradiated scalp; eight weeks following grafting, saline 119.18±4.09, p>0.05) was 127.78±2.29 LDPI and the “laser Doppler perfusion index following fat grafting” value (irradiated scalp; two weeks following injection of fat grafts, saline control 65.72±2.02, p<0.05) was 86.33±2.00 LDPI. The “inflammation and fibrosis in fat grafts” value [1] was “more inflammation and fibrosis”, the “dermal thickness of irradiated skin” value (irradiated scalp skin) was 242.09±7.22 μm and the “fat graft volume retention” value ([2]; two weeks after fat grafting, saline control 74.03) was 89.24%. For the same compound, the “fat graft volume retention” value ([2]; week 6 after fat grafting, saline 52.40, p<0.05) was 73.17% and the “fat graft volume retention” value ([2]; week 8 after fat grafting, saline 49.47, p<0.05) was 71.75%.
